The source of these data is publication PMC5447464 (Gastroenterology, 2017).

Where two headings read alike, the source gives them in different places. Where only a bound is given, the exact number is not on record here.

One data set concerns HepG2. Briefly: Viability of HCC cell line HepG2. The data set is classed as cell-based, human.
A further data set has as its system Huh7. Kind of data set: Viability of HCC cell line Huh7. The data set is classed as cell-based, human.
The next data set has as its system Hep3B. Briefly: Viability of HCC cell line Hep3B. Type of data set: cell-based, human.
For the next data set, the system named is Hep40. Briefly: Viability of HCC cell line Hep40. The data set is classed as cell-based, human. Conditions: read-out: IC50 in HCC cell lines, Hep40.
In another data set the test system is PLC/PRF/5. Kind of data set: Viability of HCC cell line PLC/PRF/5. The data set is classed as cell-based, human.
In a further data set the test system is SNU-398. Briefly: Viability of HCC cell line SNU-398. The data set is classed as cell-based, human.
The subject of another data set is SNU-449. Briefly: Viability of HCC cell line SNU-449. Type of data set: cell-based, human.
The subject of another data set is SNU-182. Kind of data set: Viability of HCC cell line SNU-182. The data set is classed as cell-based, human.
A further data set deals with SNU-475. Briefly: Viability of HCC cell line SNU-475. Type of data set: cell-based, human.
Another data set has as its system SNU-423. Briefly: Viability of HCC cell line SNU-423. Type of data set: cell-based, human.
Data set [1] concerns control shRNA and CDC37 shRNA stable transfected HepG2. Briefly: Cell viability of control shRNA and CDC37 shRNA HepG2. The data set is classed as cell-based, human. As to conditions: 6 days of treatment.
In data set [2] the test system is control shRNA and CDC37 shRNA stable transfected Huh7. Kind of data set: Cell viability of control shRNA and CDC37 shRNA Huh7. Type of data set: cell-based, human. As to conditions: 6 days of treatment.
In data set [3] the test system is control shRNA and CDC37 shRNA stable transfected Hep3B. Kind of data set: Cell viability of control shRNA and CDC37 shRNA Hep3B. Conditions: 6 days of treatment. Type of data set: cell-based, human.
In data set [4] the test system is HepG2 and Huh7 cells. Briefly: In vitro anti-proliferation assay combined with sorafenib. Type of data set: cell-based, human. Conditions: added at its IC30 or IC50 to a range of sorafenib concentrations.
For data set [5], the system named is genetically induced liver tumors. Briefly: Primary HCC mouse model. The data set is classed as in vivo. As to conditions: 1500 p.p.m in food, 12 weeks; for number of tumor nodules in the livers: vs control food.
Data set [6] concerns orthotopic PDX from HCC patients (HCC-1, HCC-2, HCC-3). Kind of data set: Orthotopic HCC PDX models, drug in food. The data set is classed as in vivo, mouse. Conditions: for PDX tumor growth (bioluminescence signals and tumor volumes): 1,500 p.p.m mixed in food, oral, vs regular chow.
Another data set has as its target HSP90/CDC37 complex (Homo sapiens, UniProt Q16543). Type of data set: biochemical. As to conditions: purified recombinant HSP90 and CDC37, ELISA and co-IP. (ELISA stands for enzyme-linked immunosorbent assay.)
In data set [7] the target is T1, CDC37 (Homo sapiens, UniProt Q16543).
T1 sequence (Q16543 1-378): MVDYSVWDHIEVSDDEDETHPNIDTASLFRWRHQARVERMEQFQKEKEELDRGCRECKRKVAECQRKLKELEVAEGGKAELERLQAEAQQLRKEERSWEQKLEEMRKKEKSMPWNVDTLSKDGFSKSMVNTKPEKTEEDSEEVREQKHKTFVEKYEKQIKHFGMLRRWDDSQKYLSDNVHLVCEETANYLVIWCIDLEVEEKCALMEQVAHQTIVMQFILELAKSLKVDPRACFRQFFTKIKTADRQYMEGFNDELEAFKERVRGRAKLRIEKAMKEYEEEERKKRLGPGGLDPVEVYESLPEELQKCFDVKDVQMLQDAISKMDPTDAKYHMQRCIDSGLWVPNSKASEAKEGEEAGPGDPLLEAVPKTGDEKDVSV
Briefly: Thermal Shift Assay. Conditions: DMSO control 52.3 °C. The data set is classed as binding.

Data set [8] concerns HSP70 and HSP27 expression. Briefly: Western blot for heat shock response. The data set is classed as cell-based. As to conditions: treated cell lines. (Immunoblotting shows a protein as a band on a membrane.)
Data set [9] relates to Wnt/β-catenin, Stat3, AKT/mTOR, and EGFR/Ras/Raf pathway proteins. Kind of data set: Western blotting of signaling proteins in PDX. Type of data set: in vivo, mouse. As to conditions: NEN 1,500 p.p.m in food.
The conditions of data set [10]: single oral dose 40 mg/Kg, mice bearing PDX, compared with niclosamide.
The conditions of data set [11]: cited from earlier work.
The conditions of data set [12]: cited from earlier work. The source holds these as a separate data set.
For data set [13], the system named is HepG2 and Huh7 cells. The data set is classed as cell-based, human. As to conditions: read-out: IC50, proliferation of HepG2 and Huh7 cells.
For data set [14], the system named is primary hepatocytes Hu8216. Briefly: Viability of primary hepatocytes Hu8216. As to conditions: Homo sapiens, Hepatocyte, read-out: IC50 in primary hepatocytes, Hu8216. The data set is classed as cell-based.
The subject of data set [15] is primary hepatocytes Hu1748. Briefly: Viability of primary hepatocytes Hu1748. As to conditions: Homo sapiens, Hepatocyte, read-out: IC50 in primary hepatocytes, Hu1748. Type of data set: cell-based.
Another data set has as its system PDX-HCC-2. Kind of data set: PDX. Conditions: PDX HCC-2, sorafenib 50 mg/Kg, NEN 200 mg/Kg or niclosamide 400 mg/Kg, daily oral gavage, four weeks. Type of data set: in vivo, mouse.
Data set [16] deals with T1, CDC37. Kind of data set: Pull-down assay with niclosamide-conjugated sepharose beads. Type of data set: binding. Conditions: niclosamide conjugated to epoxy-activated sepharose beads.

For `NCCO.O=C(Nc1ccc([N+](=O)[O-])cc1Cl)c1cc(Cl)ccc1O` [NEN, niclosamide ethanolamine], in the data set with HepG2 (HepG2), the “IC30, HepG2” value was 0.4 µM. Moreover, the IC50 in the data set with HepG2 (read-out: IC50 in HCC cell lines, HepG2, viability, HepG2) stood at 0.46 µM; in the data set on Huh7 (read-out: IC50 in HCC cell lines, Huh7, viability, Huh7), 0.63 µM; in the data set with Hep3B (read-out: IC50 in HCC cell lines, Hep3B, viability), 0.17 µM; in the data set with Hep40 (viability, Hep40), 0.74 µM; with PLC/PRF/5 (read-out: IC50 in HCC cell lines, PLC/PRF/5, viability, PLC/PRF/5), 0.53 µM; in the data set with SNU-398 (read-out: IC50 in HCC cell lines, SNU-398, viability, SNU-398) it was 0.2 µM. For the same compound, the IC50 stood at 0.53 µM in the data set with SNU-449 (read-out: IC50 in HCC cell lines, SNU-449, viability, SNU-449); 0.34 µM in the data set on SNU-182 (read-out: IC50 in HCC cell lines, SNU-182, viability, SNU-182); 0.35 µM with SNU-475 (read-out: IC50 in HCC cell lines, SNU-475, viability, SNU-475); 0.26 µM with SNU-423 (read-out: IC50 in HCC cell lines, SNU-423, viability, SNU-423); 0.61 µM in data set [1] (read-out: IC50, CDC37 knockdown HepG2, CDC37 shRNA); 0.35 µM in [1] (read-out: IC50, mock transfected (control shRNA) HepG2, control shRNA). For the same compound, the IC50 in [2] (read-out: IC50, CDC37 knockdown Huh7, CDC37 shRNA) was 0.93 µM; in data set [2] (read-out: IC50, mock transfected (control shRNA) Huh7, control shRNA), 0.61 µM; in data set [3] (read-out: IC50, CDC37 knockdown Hep3B, CDC37 shRNA) it was 0.52 µM; in data set [3] (read-out: IC50, mock transfected (control shRNA) Hep3B, control shRNA), 0.16 µM. Further, the “IC30, Huh7” value in the data set with Huh7 (Huh7) turned out to be 0.5 µM. Also, the “effect on IC50 of sorafenib in HCC cells” value in the data set with HepG2 and Huh7 cells [4] is listed as “reduced their IC50 values to sorafenib”. Further, in data set [5] (vs control and niclosamide groups), the “weight of whole livers (liver plus tumor nodules)” value is reported as “significantly reduced liver weight”. For the same compound, the “number of tumor nodules in the livers” value in data set [5] is recorded as “visibly reduced the number of tumor nodules”. The “PDX tumor growth (bioluminescence signals and tumor volumes)” value in [6] is given as “significantly decreased PDX growth”. In data set [6] (end of treatment period, treated vs control groups), the body weight changes result is “no significant body weight changes”. Moreover, on HSP90/CDC37 complex, the “effect on HSP90/CDC37 interaction” value is given as “inhibited the HSP90/CDC37 interaction”. For the same compound, the entries for the “average Tm value of CDC37” value at CDC37 [7] (25 μM) and on CDC37 [7] (50 μM) were 54.97 °C and 56.03 °C, respectively. For the same compound, the “heat shock response (HSP70 and HSP27 induction)” value in data set [8] was “did not induce the classical heat shock response”. Also, in data set [9], the “expression levels of signaling pathway proteins” value is listed as “decreased expression levels of proteins involved in multiple signaling pathways”. For the same compound, the plasma levels entry in data set [10] is “similarly higher”. Further, in data set [11], the water solubility result is listed as “improved water solubility”. Besides, the systemic bioavailability entry in [12] was “improved water solubility and systemic bioavailability over niclosamide”.
`NCCO` [ethanolamine]: the “average Tm value of CDC37” value was 52.93 °C at CDC37 [7] (25 μM) and 53.2 °C at CDC37 [7] (50 μM).
ivermectin: the IC50 with HepG2 and Huh7 cells [13] (range over HepG2 and Huh7, Supplemental Figure 8) is > 10 µM.
As for `COC(=O)Nc1nc2ccc(C(=O)c3ccccc3)cc2[nH]1` [mebendazole], the IC50 in the data set on HepG2 and Huh7 cells [13] (Homo sapiens) was in the range of 0.38 to 1.65 µM.
For `O=C(Nc1ccc([N+](=O)[O-])cc1Cl)c1cc(Cl)ccc1O` [niclosamide], the IC50 in the data set with HepG2 (Homo sapiens, HepG2, read-out: IC50 in HCC cell lines, HepG2) came out at 0.85 µM; with Huh7 (Homo sapiens, Huh-7, read-out: IC50 in HCC cell lines, Huh7), 0.74 µM; in the data set on Hep3B (Homo sapiens, read-out: IC50 in HCC cell lines, Hep3B) it was 0.2 µM; in the data set on Hep40 (Homo sapiens), 0.81 µM; with PLC/PRF/5 (Homo sapiens, PLC-PRF-5, read-out: IC50 in HCC cell lines, PLC/PRF/5) it was 0.77 µM; with SNU-398 (Homo sapiens, SNU-398, read-out: IC50 in HCC cell lines, SNU-398), 0.24 µM. Further, the IC50 worked out at 0.67 µM in the data set on SNU-449 (Homo sapiens, SNU-449, read-out: IC50 in HCC cell lines, SNU-449); 0.36 µM in the data set with SNU-182 (Homo sapiens, SNU-182, read-out: IC50 in HCC cell lines, SNU-182); 0.4 µM in the data set on SNU-475 (Homo sapiens, SNU-475, read-out: IC50 in HCC cell lines, SNU-475); 0.32 µM in the data set with SNU-423 (Homo sapiens, SNU-423, read-out: IC50 in HCC cell lines, SNU-423); 4.31 µM in data set [14]; 3.64 µM in data set [15]. For the same compound, the IC50 in the data set with HepG2 and Huh7 cells [13] (Homo sapiens) lay within 0.65 to 1.77 µM. The “number of tumor nodules in the livers” value in [5] is “much lesser effect than NEN”. In [6], the “PDX tumor growth (bioluminescence signals and tumor volumes)” value was “did not produce any significant effects on tumor growth”. Further, the tumor volume entry in the data set with PDX-HCC-2 is “did not decrease tumor volume”. Moreover, the “pull-down of CDC37” value at CDC37 [16] is “pulled down CDC37”. Moreover, in data set [12] (in vivo), the systemic bioavailability entry is given as “very limited systemic bioavailability”.
